Experimental data as given in patent publication US20020076401A1, “Heat shock protein inducing factor and method for its in-situ generation from an inactive form” (priority 2000, published 2002).
Where a SMILES comes first, the peptide text is derived from it. The star is where a group is joined. Cbz = O=C(OCc1ccccc1)*

Assays:
[1] = tested on: Hsp72 expression in old cells; conditions: cited from earlier work
[2] = tested on: HSP-inducing factor in blood serum and ascites fluid; test: In-vitro activation of HSP-inducing factor by sodium periodate; assay type: cell-based, mouse
Method: To activate HSP-inducing factor, 200 mM solution of sodium periodate in physicological saline (solutions of sodium periodate in water or in 50 mM sodium acetate pH 5.0 work equally well) was added to aliquots of serum or of ascites fluid to final concentration of 1 mM to 20 mM (at these concentrations and in conditions outlined below, sodium periodate oxidizes only sugar groups). Mixtures were incubated at room temperature in darkness for 1 hour. Following the incubation sodium periodate was quenched by the addition of solution of potassium borohydride in physiological saline to a final concentration equal to 1.5 times excess of the concentration of sodium periodate. The completeness of quenching was verified by using potassium iodide-starch test paper.
(§1) Aliquots of serum, treated as described above, were added to cultures of CH1 cells and cultures of primary human fibroblasts at 20% of final volume. Cultures were incubated for 16 hours at regular tissue culture conditions (37° C., 5% CO2). Following the incubation, cells were collected, washed, and lysed. Lysates were subjected to polyacrylamide gel electrophoresis (PAGE), transferred to nitrocellulose membrane (Awestem transfer≅), and Hsp70 was detected by immunoblotting with Hsp70-specific monoclonal antibody (Spa810) and visualized by ECL technique.

[3] = tested on: HSP-inducing factor in serum; test: In-vivo activation of HSP-inducing factor by single injection of periodate; set-up: species or system mice
Method: as §1
Mice were injected with either intraperitoneally (IP) or subcutaneously (SQ) with 0.2 ml of sodium periodate solution in physiological saline, or with 0.2 ml of physiological saline alone.
Four different concentrations of sodium periodate were used: 15 mM, 30 mM, 60 mM, and 120 mM. In parallel experiments the same concentrations of periodate but prequenched with potassium borohydride as described above were injected. After 2 hours blood samples were collected from tail and serum was used in the assay described above.

[4] = tested on: HSP-inducing factor in serum; test: In-vivo activation of HSP-inducing factor by prolonged release of periodate; set-up: species or system mouse; conditions: 500 mM released over 72 hours, SQ pump; detected after 3 hours and maintained
Method: In another type of experiment […] of either 500 mM solution of sodium periodate in physiological saline or physiological saline alone were released over a period of 72 hours using microosmotic pumps implanted SQ. In parallel experiments the same concentration of periodate but prequenched with potassium borohydride as described above was administered. After different time periods blood samples were collected from tail and serum was used in the assay described above.

[5] = tested on: Hsp70-inducing activity in serum; test: Periodate treatment of serum from differently stressed mice; assay type: cell-based; conditions: in vitro periodate treatment

For CC(C)C[C@@H](C=O)NC(=O)[C@H](CC(C)C)NC(=O)[C@H](CC(C)C)NC(=O)OCc1ccccc1 [MG132] (Cbz-Leu-Leu-Leu-aldehyde), the toxicity [1] is listed as “highly toxic” and the Hsp72 synthesis ([1]; old cells) is listed as “induces Hsp72 synthesis via an alternative heat shock transcription factor HSF2”.
With [O-][I+3]([O-])([O-])O [sodium periodate] the “levels of active factor versus periodate concentration” value ([2]; assessed by Hsp70 in cell lysates) was “directly proportional to concentrations of sodium periodate used”, the “activation of HSP-inducing factor” value ([2]; blood serum and ascites fluid, 1 mM to 20 mM, 1 hour, room temperature) was “strongly activated” and the “Hsp70 in cell lysate relative to cells incubated with untreated serum” value ([2]; maximal sodium periodate concentration, serum at 20%, 16 hours) was “at least 50 times”. The “levels of HSP in cell lysates relative to cells incubated with untreated serum” value ([3]; maximal sodium periodate concentration, single injection) was “about 10 times”, the “levels of HSP-inducing factor in serum” value ([3]; mice, IP or SQ 0.2 ml of 15-120 mM, 2 hours) was “substantially increased levels of HSP-inducing factor” and the “levels of HSP-inducing factor versus periodate concentration” value ([3]; mice, single injection) was “directly proportional to the concentrations of periodate used”. The “levels of HSP-inducing factor in serum” value [4] was “Substantially increased levels of HSP-inducing factor” and the “Hsp70-inducing activity of serum from differently stressed mice after periodate treatment” value [5] was “further increased in all samples to a level identical to that seen in periodate-activated serum from non-stressed mice”.
